# Experimental data: the supplement of paper PMC10307832
# Assays:
# Assay in all cases: relative viability (nuclei count vs DMSO), 5 days (fraction); higher = more cells survive
# [1] = compound: COC1=C(C=C(C=C1)C2=CC3=NC=CN3C(=N2)NC4=C(C=CC=N4)C(=O)N)OC [BAY61-3606] + Cc1cc(Nc2cc(N3CCN(C)CC3)nc(Sc3ccc(NC(=O)C4CC4)cc3)n2)n[nH]1 [Tozasertib] (partner 0.1 µM)
# How it was run: (§1)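 Lung cancer cell lines were pin-tool dosed in 1536-well plates on the day after seeding, with either a lone drug or a fixed anchor-drug dose plus five library-drug doses (not always all listed) in √10 steps. Nuclei were counted on 4× images after 5 days. Relative viability is the ratio of treated-well to vehicle-well nuclei counts, with each value a median of duplicate plates.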
# [2] = compound: COC1=C(C=C(C=C1)C2=CC3=NC=CN3C(=N2)NC4=C(C=CC=N4)C(=O)N)OC [BAY61-3606] + CS(=O)(=O)N1CCN(Cc2cc3nc(-c4cccc5[nH]ncc45)nc(N4CCOCC4)c3s2)CC1 [Pictilisib] (partner 1 µM)
# How it was run: as §1
# [3] = compound: COC1=C(C=C(C=C1)C2=CC3=NC=CN3C(=N2)NC4=C(C=CC=N4)C(=O)N)OC [BAY61-3606] + C[C@]1(O)C[C@@H](c2nc(-c3ccc4ccc(-c5ccccc5)nc4c3)c3c(N)nccn32)C1 [Linsitinib] (partner 1 µM)
# How it was run: as §1
# [4] = compound: COC1=C(C=C(C=C1)C2=CC3=NC=CN3C(=N2)NC4=C(C=CC=N4)C(=O)N)OC [BAY61-3606] + COc1cccc2cc(-c3nc([C@H]4CC[C@H](C(=O)O)CC4)n4ncnc(N)c34)[nH]c12 [OSI-027] (partner 0.5 µM)
# How it was run: as §1
Cell Line,relative viability ([1]; first compound 0.02 µM),relative viability ([1]; first compound 0.06325 µM),relative viability ([1]; first compound 0.2 µM),relative viability ([1]; first compound 0.6325 µM),relative viability ([1]; first compound 2 µM),relative viability ([2]; first compound 0.02 µM),relative viability ([2]; first compound 0.06325 µM),relative viability ([2]; first compound 0.2 µM),relative viability ([2]; first compound 0.6325 µM),relative viability ([2]; first compound 2 µM),relative viability ([3]; first compound 0.02 µM),relative viability ([3]; first compound 0.06325 µM),relative viability ([3]; first compound 0.2 µM),relative viability ([3]; first compound 0.6325 µM),relative viability ([3]; first compound 2 µM),relative viability ([4]; first compound 0.02 µM),relative viability ([4]; first compound 0.06325 µM),relative viability ([4]; first compound 0.2 µM),relative viability ([4]; first compound 0.6325 µM),relative viability ([4]; first compound 2 µM)
LU99A,0.279,0.216,0.217,0.239,0.177,0.343,0.352,0.34,0.329,0.278,0.544,0.548,0.575,0.501,0.318,0.315,0.271,0.298,0.26,0.306
LXF-289,0.227,0.183,0.194,0.16,0.165,0.846,0.83,0.782,0.805,0.84,0.906,1.02,0.948,1.05,0.569,0.938,0.834,0.687,0.888,0.825
NCI-H23,0.378,0.342,0.296,0.342,0.236,0.743,0.522,0.49,0.522,0.382,0.613,0.689,0.609,0.881,0.423,0.629,0.72,0.442,0.561,0.512
NCI-H322M,0.498,0.477,0.48,0.421,0.412,0.506,0.529,0.516,0.523,0.482,1.05,0.946,0.911,0.925,0.878,0.53,0.592,0.562,0.582,0.47
NCI-H358,0.108,0.111,0.107,0.103,0.0821,0.385,0.327,0.333,0.321,0.167,0.769,0.64,0.699,0.673,0.299,0.918,0.722,0.781,0.677,0.199
NCI-H441,0.636,0.558,0.363,0.314,0.274,0.561,0.529,0.493,0.475,0.282,0.646,0.628,0.626,0.535,0.38,0.587,0.713,0.428,0.557,0.313
NCI-H460,0.447,0.0447,0.139,0.0713,0.0263,0.433,0.353,0.319,0.35,0.377,1.03,0.77,0.752,0.822,0.189,0.781,0.672,0.657,0.467,0.214
NCI-H520,0.48,0.432,0.461,0.452,0.356,0.316,0.32,0.329,0.261,0.317,1.14,1.04,1.08,1.16,0.94,0.247,0.364,0.364,0.296,0.212
NCI-H596,1.2,0.941,0.746,0.844,0.435,0.41,0.387,0.386,0.416,0.408,1.16,0.962,1,1.02,0.954,0.699,0.535,0.647,0.711,0.462
NCI-H647,0.339,0.176,0.167,0.258,0.131,0.622,0.297,0.435,0.404,0.365,1.34,1.46,1.46,1.05,0.661,0.648,0.567,0.691,0.423,0.277
NCI-H650,0.795,0.263,0.648,0.455,0.226,0.984,0.722,0.798,1.01,0.596,1.12,0.934,0.781,1.02,0.596,0.509,0.532,0.439,0.495,0.513
NCI-H661,0.357,0.358,0.37,0.378,0.362,0.422,0.415,0.376,0.383,0.408,0.868,0.484,0.627,0.616,0.405,0.707,0.742,0.734,0.699,0.505
NCI-H727,0.799,0.593,0.521,0.656,0.442,0.443,0.4,0.392,0.386,0.267,0.258,0.184,0.386,0.188,0.354,0.604,0.559,0.71,0.688,0.513
NCI-H838,0.285,0.224,0.234,0.23,0.224,0.568,0.432,0.601,0.523,0.324,1.12,1,1.06,1.13,0.891,0.456,0.36,0.429,0.411,0.298
NCI-H1355,0.568,0.344,0.49,0.344,0.214,0.508,0.378,0.389,0.374,0.302,0.798,0.8,0.799,0.891,0.678,0.409,0.329,0.374,0.377,0.286
NCI-H1395,0.722,0.679,0.682,0.781,0.411,0.777,0.524,0.584,0.641,0.559,1.39,0.989,1.1,1.1,0.888,0.721,0.581,0.601,0.635,0.629
